Reference: patent publication US20140081017A1, “Histone Deacetylase Inhibitors for Enhancing Activity of Antifungal Agents” (METHYLGENE INC., priority 2012, published 2014)
In brackets after ≈: the same amount, converted by molar mass. Like-named read-outs stand apart in the source and are kept apart here.

How the values were obtained:
Candida parapsilosis = assay: Minimal Inhibitory Concentration (MIC) assay, broth microdilution per CLSI; type: cell-based; conditions: Lodderomyces parapsilosis, read-out: Minimum Inhibitory Concentrations against Yeast Isolates, Candida parapsilosis;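 note: two read times 24 hr and 48 hr of incubation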
Protocol: (§1) The in vitro activities of the inventive compounds (compound(s) herein) against fungi and/or yeasts were determined with isolates Candida albicans, Candida glabrata and Candida parapsilosis. The comparator compounds included fluconazole, caspofungin and amphotericin B.
(§2) The compounds were supplied as a powder, and were dissolved in dimethylsulfoxide (DMSO) the day of assay. Stock solutions were prepared at 10 mg/mL and diluted to a starting stock concentration of 2.56 mg/mL. Amphotericin B was dissolved in DMSO to a stock concentration of 2.56 mg/mL. Fluconazole was dissolved in deionized water to a stock concentration of 2.56 mg/mL. Caspofungin was received as a stock solution of 3.2 mg/mL in DMSO and was diluted to a starting stock concentration of 2.56 mg/mL.
(§3) The test organisms and reference isolates were streaked for isolation on Sabouraud agar medium (yeasts) or potato dextrose agar (fungi). Colonies were picked by swab from the medium and resuspended in the appropriate broth containing cryoprotectant. The suspensions were aliquoted into cryogenic vials and maintained at −80° C.
(§4) Prior to testing, the yeast isolates were streaked from the frozen vials onto Sabouraud dextrose agar. The plates were incubated overnight at 35° C. The fungal isolate was grown on potato dextrose agar slants and was incubated for 7-10 days at room temperature.
(§5) Both yeast and fungal isolates were tested in RPMI medium buffered with 0.165 M MOPS (3-(N-morpholino)propanesulfonic acid). The pH of the medium was adjusted to 7.0 with 1 N NaOH. The medium was sterile filtered using a 0.2 um PES (polyethersulfone) filter and stored at 4° C. until used.
(§6) The MIC assay method followed the procedure described by the Clinical and Laboratory Standards Institute (CLSI; 1, 2, 3) and employed automated liquid handlers to conduct serial dilutions and liquid transfers. Automated liquid handlers included the Multidrop 384 (Labsystems, Helsinki, Finland), Biomek 2000 and Biomek FX (Beckman Coulter, Fullerton Calif.). The wells in columns 2-12 in standard 96-well microdilution plates (Costar 3795) were filled with 150 ul of 100% DMSO. These would become the ‘mother plates’ from which ‘daughter’ or test plates would be prepared. The compounds (300 uL at 40× the desired top concentration in the test plates) were dispensed into the appropriate well in Column 1 of the mother plates. The Biomek 2000 was used to make serial 1:1 dilutions through Column 11 in the “mother plate”. The wells of Column 12 contained no compounds and were the organism growth control wells.
(§7) The daughter plates were loaded with 185 uL per well of RPMI described above using the Multidrop 384. The daughter plates were prepared using the Biomek FX which transferred 5 μL of the compound solution from each well of a mother plate to the corresponding well of the daughter plate in a single step.
(§8) Standardized inoculum of each organism was prepared per CLSI methods. For yeast isolates, colonies were picked from the streak plate and a suspension was prepared in 0.85% saline. For the fungal isolate, 1 mL of 0.85% saline was dispensed onto the potato dextrose agar slant that had been inoculated 7-10 days previously. Using a swab, a suspension of the fungus was made. After a short time to allow the heavy particles to settle out, a small quantity of the supernatant was dispensed into 0.85% saline and the suspension adjusted to equal a 0.5 McFarland turbidity standard. Both yeast and fungal isolates were diluted 1:100 in RPMI and then transferred to compartments of sterile reservoirs divided by length (Beckman Coulter). The Biomek 2000 was used to inoculate the plates. Daughter plates were placed on the Biomek 2000 work surface reversed so that inoculation took place from low to high compound concentration. The Biomek 2000 delivered 10 μL of standardized inoculum into each well. Thus, the wells of the daughter plates ultimately contained 185 uL of RPMI, 5 uL of the compound solution, and 10 uL of inoculum. […]

Candida glabrata = assay: as above; type: cell-based; conditions: Nakaseomyces glabratus, read-out: Minimum Inhibitory Concentrations against Yeast Isolates, Candida glabrata;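 note: two read times 24 hr and 48 hr of incubation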
Protocol: as §1, §2, §3, §4, §5, §6, §7, §8

Candida albicans = assay: as above; type: cell-based; conditions: Candida albicans, read-out: Minimum Inhibitory Concentrations against Yeast Isolates, Candida albicans;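 note: two read times 24 hr and 48 hr of incubation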
Protocol: as §1, §2, §3, §4, §5, §6, §7, §8

C. glabrata = assay: Checkerboard FIC assay in combination with fluconazole (MIC alone and in combination, FICI); type: cell-based, Candida glabrata; conditions: for FICI of combination resulting in fluconazole MIC of: 2 ug/mL / FICI of combination resulting in fluconazole MIC of: 4 ug/mL / FICI of combination resulting in fluconazole MIC of: 8 ug/mL: FICI calculated using a fluconazole MIC of 16 μg/mL; for FICI of combination resulting in fluconazole MIC of: 2 ug/mL (value in parenthesis) / FICI of combination resulting in fluconazole MIC of: 4 ug/mL (value in parenthesis) / FICI of combination resulting in fluconazole MIC of: 8 ug/mL (value in parenthesis): FICI using a fluconazole MIC of 128 μg/mL; for MIC: Nakaseomyces glabratus; for Concentration of Methylgene compound to synergize fluconazole MIC to 2 ug/mL / Concentration of Methylgene compound to synergize fluconazole MIC to 4 ug/mL / Concentration of Methylgene compound to synergize fluconazole MIC to 8 ug/mL: in combination with fluconazole; for Concentration of Methylgene compound to synergize fluconazole MIC to 2 ug/mL: fluconazole MIC lowered to 2 ug/mL; for Concentration of Methylgene compound to synergize fluconazole MIC to 4 ug/mL: fluconazole MIC lowered to 4 ug/mL; for Concentration of Methylgene compound to synergize fluconazole MIC to 8 ug/mL: fluconazole MIC lowered to 8 ug/mL
Protocol: The ability of the compounds to synergize with azoles against C. glabrata was evaluated by the checkerboard assay, a common laboratory method used to evaluate synergy, antagonism, and indifference using fractional inhibitory concentrations (FICs) and FIC indices (FICI).
The test compounds were supplied as a powder and dissolved in dimethylsulfoxide (DMSO) on the day of assay. Stock solutions were prepared at 640 ug/mL. Fluconazole was dissolved in deionized water to a stock concentration of 320 ug/mL. All test articles were in solution under these conditions.
as §3, §4, §5
FIC values were determined using a broth microdilution method (CLSI; 1, 3). To prepare the test plates, automated liquid handlers (Multidrop 384, Labsystems, Helsinki, Finland; Biomek 2000 and Biomek FX, Beckman Coulter, Fullerton Calif.) were used to conduct serial dilutions and liquid transfers.
The wells of standard 96-well microdilution plates (Costar 3795) were filled with 150 uL of DMSO in columns 2-12. Three hundred microliters of each test compound was added to each well in Column 1 of the plates. The Biomek 2000 was used to make eleven 2-fold serial dilutions in each of these “test compound mother” plates. The wells of the “fluconazole mother plates” were filled with 150 uL of sterile water in rows B-H. Row A of these plates was filled with 300 uL of the fluconazole stock solution. Serial 2-fold dilutions were then prepared from top to bottom by hand, using a multichannel pipette in rows B-G. The “daughter plates” were loaded with 180 uL of RPMI using the Multidrop 384. The Biomek FX was used to transfer 5 uL of compound solution from each well of a fluconazole mother plate to the corresponding well in all of the daughter plates in a single step. Then the Biomek FX was used to transfer 5 uL of compound solution from each well of a test compound mother plate to the corresponding well of the corresponding test compound daughter plate (already containing fluconazole at the appropriate concentrations) in a single step. Row H and Column 12 each contained serial dilutions of the test agent and fluconazole alone, respectively, for determination of the MIC.
Standardized inoculum of each organism was prepared per CLSI methods (CLSI; 1, 3). For yeast isolates, colonies were picked from the primary plate and a suspension was prepared in 0.85% saline to equal a 0.5 McFarland turbidity standard. For the fungal isolate, 1 mL of 0.85% saline was dispensed onto a potato dextrose agar slant onto which the isolate had been inoculated 7-10 days previously. Using a swab, a suspension of the fungus was made. After a short time to allow the heavy particles to settle out, a small quantity of the supernatant was dispensed into 0.85% saline and the suspension was adjusted to equal a 0.5 McFarland turbidity standard. Both yeast and fungal isolates were diluted 1:100 in RPMI and then transferred to compartments of sterile reservoirs divided by length (Beckman Coulter). The Biomek 2000 was used to inoculate the plates. […]

[1] = 24 hr reading (first value of cell 24 hr/48 hr)
[2] = 48 hr reading (second value of cell 24 hr/48 hr)
[3] = MIC of the example compound alone against C. glabrata in the checkerboard assay, approximately 48 hr, read-out: Methylgene MIC
[4] = test compound alone, C. glabrata, approx. 48 hr at 35° C., read-out: Compound MIC

SMILES | MIC (Candida parapsilosis; [1]) | MIC (Candida parapsilosis; [2]) | MIC (Candida glabrata; [1]) | MIC (Candida glabrata; [2]) | MIC (Candida albicans; [1]) | MIC (Candida albicans; [2]) | FICI of combination resulting in fluconazole MIC of: 2 ug/mL (C. glabrata; C. glabrata) | FICI of combination resulting in fluconazole MIC of: 4 ug/mL (C. glabrata; C. glabrata) | FICI of combination resulting in fluconazole MIC of: 8 ug/mL (C. glabrata; C. glabrata) | FICI of combination resulting in fluconazole MIC of: 2 ug/mL (value in parenthesis) (C. glabrata; C. glabrata) | FICI of combination resulting in fluconazole MIC of: 4 ug/mL (value in parenthesis) (C. glabrata; C. glabrata) | FICI of combination resulting in fluconazole MIC of: 8 ug/mL (value in parenthesis) (C. glabrata; C. glabrata) | MIC (C. glabrata; [3]) | MIC (C. glabrata; [4]) | Multiple of compound MIC to synergize fluconazole MIC to 2 ug/mL (C. glabrata; concentration in combination as multiple of the compound's MIC alone, fluconazole MIC 2 ug/mL) | Multiple of compound MIC to synergize fluconazole MIC to 4 ug/mL (C. glabrata; concentration in combination as multiple of the compound's MIC alone, fluconazole MIC 4 ug/mL) | Multiple of compound MIC to synergize fluconazole MIC to 8 ug/mL (C. glabrata; concentration in combination as multiple of the compound's MIC alone, fluconazole MIC 8 ug/mL) | Concentration of Methylgene compound to synergize fluconazole MIC to 2 ug/mL (C. glabrata; C. glabrata) | Concentration of Methylgene compound to synergize fluconazole MIC to 4 ug/mL (C. glabrata; C. glabrata) | Concentration of Methylgene compound to synergize fluconazole MIC to 8 ug/mL (C. glabrata; C. glabrata)
O=C(Cc1ccc(CCCCc2ccc(OCCCN3CCOCC3)cc2)cc1)NO [Example 16, N-hydroxy-2-(4-(4-(4-(3-morpholinopropoxy)phenyl)butyl)phenyl)acetamide] | > 16 µg/mL | > 16 µg/mL | > 32 µg/mL | > 32 µg/mL | > 16 µg/mL | > 16 µg/mL | 0.375 | 0.500 | 0.625 | 0.266 | 0.281 | 0.188 | 2 µg/mL | 2 µg/mL | (¼x) | (¼x) | (⅛x) | 0.5 µg/mL | 0.5 µg/mL | 0.25 µg/mL
CN1CCC(C(=O)Nc2cccc(CCCCc3ccc(CC(=O)NO)cc3)c2)CC1 [Example 43, N-(3-(4-(4-(2-(hydroxyamino)-2-oxoethyl)phenyl)butyl)phenyl)-1-methylpiperidine-4-carboxamide] | > 64 µg/mL | > 64 µg/mL | 16 µg/mL (≈ 37.8 µM) | 64 µg/mL (≈ 151 µM) | > 64 µg/mL | > 64 µg/mL | 0.313 | 0.250 | 0.313 | 0.266 | 0.156 | 0.125 | > 16 µg/mL | > 16 µg/mL | – | – | – | 8 µg/mL | 4 µg/mL | 2 µg/mL
O=C(Cc1ccc(CCCCc2ccccc2NC(=O)CO)cc1)NO [Example 46, N-hydroxy-2-(4-(4-(2-(2-hydroxyacetamido)phe-nyl)butyl)phenyl)acetamide] | > 64 µg/mL | > 64 µg/mL | 64 µg/mL (≈ 180 µM) | > 64 µg/mL | > 64 µg/mL | > 64 µg/mL | 0.563 | 0.625 | 0.500 | 0.516 | 0.531 | 0.313 | > 16 µg/mL | > 16 µg/mL | – | – | – | 16 µg/mL | 16 µg/mL | 8 µg/mL
